Assay results: patent US12441733B2, “Substituted 2,4-dioxotetrahydropyrimidines as intermediates in the synthesis of bruton's tyrosine kinase inhibitors” (Novartis AG, priority 2018, dated 2025)

Target: T1, BTK-GFP (Homo sapiens, UniProt Q06187+Q96SW2)
T1 construct: expressed in transfected cells; host or cells: HEK293A (Invitrogen R70507), lentiviral transduction with pLenti6-BTK-GFP-Ires-RFP, blasticidin selection
Assay: BTK-GFP protein abundance flow cytometry assay in HEK293A cells
Type: cell-based
Details: HEK293A BTK-GFP-iresRFP cells, 24 h; for DC50: GFP signal by flow cytometry, concentration at which 50% maximal degradation was observed; for BTK deg Amax: % protein remaining at the concentration at which maximum degradation is seen
In short: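 HEK293A cells stably expressing bicistronic BTK-GFP-IRES-RFP (C-terminal GFP tag) via lentiviral vector. Degradation read by flow cytometry as loss of GFP signal after degrader treatment. DC50 is concentration giving 50% maximal degradation; Amax is % protein remaining at maximal degradation.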

T1 sequence (Q06187 whole entry): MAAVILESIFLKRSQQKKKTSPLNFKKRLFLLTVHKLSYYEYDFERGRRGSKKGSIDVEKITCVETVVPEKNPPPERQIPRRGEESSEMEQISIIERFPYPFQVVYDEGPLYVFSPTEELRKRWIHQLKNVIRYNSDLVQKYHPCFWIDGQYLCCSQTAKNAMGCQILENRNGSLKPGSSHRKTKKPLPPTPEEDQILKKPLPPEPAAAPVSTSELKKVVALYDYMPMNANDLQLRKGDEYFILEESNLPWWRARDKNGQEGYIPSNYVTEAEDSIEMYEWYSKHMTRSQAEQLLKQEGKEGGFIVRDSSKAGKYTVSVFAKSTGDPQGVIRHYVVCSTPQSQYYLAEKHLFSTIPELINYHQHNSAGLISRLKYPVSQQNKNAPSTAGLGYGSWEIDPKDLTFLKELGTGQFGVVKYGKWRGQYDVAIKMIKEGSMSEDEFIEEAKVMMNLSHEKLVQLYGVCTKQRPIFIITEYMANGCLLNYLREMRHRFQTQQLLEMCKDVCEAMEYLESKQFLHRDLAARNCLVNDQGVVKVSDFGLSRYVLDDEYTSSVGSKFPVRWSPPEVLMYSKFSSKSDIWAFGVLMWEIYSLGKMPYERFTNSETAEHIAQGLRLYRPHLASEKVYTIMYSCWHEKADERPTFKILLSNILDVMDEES
T1 sequence (Q96SW2 whole entry): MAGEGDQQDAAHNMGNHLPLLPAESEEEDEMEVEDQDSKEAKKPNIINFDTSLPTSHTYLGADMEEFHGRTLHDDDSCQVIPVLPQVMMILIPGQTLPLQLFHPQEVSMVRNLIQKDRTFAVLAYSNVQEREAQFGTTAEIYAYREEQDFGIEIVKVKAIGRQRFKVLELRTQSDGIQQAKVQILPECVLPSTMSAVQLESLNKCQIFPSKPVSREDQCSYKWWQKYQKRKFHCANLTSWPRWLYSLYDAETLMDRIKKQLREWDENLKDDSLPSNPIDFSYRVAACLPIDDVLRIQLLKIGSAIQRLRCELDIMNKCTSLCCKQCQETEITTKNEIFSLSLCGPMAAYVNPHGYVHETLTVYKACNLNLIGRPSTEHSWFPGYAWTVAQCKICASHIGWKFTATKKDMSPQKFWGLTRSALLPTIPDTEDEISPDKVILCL
T1 sequence (Q16531 whole entry partner): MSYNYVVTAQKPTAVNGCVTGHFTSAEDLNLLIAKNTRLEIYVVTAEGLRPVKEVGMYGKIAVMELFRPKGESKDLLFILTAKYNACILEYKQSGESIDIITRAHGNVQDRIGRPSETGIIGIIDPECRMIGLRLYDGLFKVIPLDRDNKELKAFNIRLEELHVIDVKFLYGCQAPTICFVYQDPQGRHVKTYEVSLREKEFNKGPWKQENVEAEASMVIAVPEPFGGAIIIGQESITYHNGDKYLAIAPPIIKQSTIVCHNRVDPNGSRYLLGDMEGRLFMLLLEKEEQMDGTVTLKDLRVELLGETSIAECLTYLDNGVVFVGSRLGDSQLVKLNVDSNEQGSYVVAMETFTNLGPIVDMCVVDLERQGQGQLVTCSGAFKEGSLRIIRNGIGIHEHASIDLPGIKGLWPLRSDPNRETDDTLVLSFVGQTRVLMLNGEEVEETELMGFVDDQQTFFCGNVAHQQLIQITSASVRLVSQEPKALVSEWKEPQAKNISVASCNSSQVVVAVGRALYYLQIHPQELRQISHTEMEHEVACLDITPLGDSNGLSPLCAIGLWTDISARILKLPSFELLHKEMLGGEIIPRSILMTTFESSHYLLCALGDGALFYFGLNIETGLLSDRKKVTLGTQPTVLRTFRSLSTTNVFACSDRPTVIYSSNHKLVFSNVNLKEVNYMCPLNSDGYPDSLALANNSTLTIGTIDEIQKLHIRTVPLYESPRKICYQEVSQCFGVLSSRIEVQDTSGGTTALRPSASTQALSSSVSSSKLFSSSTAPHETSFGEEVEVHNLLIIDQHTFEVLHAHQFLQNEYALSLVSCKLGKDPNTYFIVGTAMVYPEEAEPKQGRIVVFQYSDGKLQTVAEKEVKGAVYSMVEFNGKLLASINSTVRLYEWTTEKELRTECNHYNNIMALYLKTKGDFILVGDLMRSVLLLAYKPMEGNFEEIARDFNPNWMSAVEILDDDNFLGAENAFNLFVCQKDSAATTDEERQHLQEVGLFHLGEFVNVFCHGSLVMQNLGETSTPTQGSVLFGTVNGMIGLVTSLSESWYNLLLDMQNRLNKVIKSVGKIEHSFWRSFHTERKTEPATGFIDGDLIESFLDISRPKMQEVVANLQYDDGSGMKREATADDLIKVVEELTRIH

SMILES | DC50 [nM] | BTK deg Amax [%]
CCOc1ccc(C(=O)N2CCC3(CCN(Cc4ccc(-c5cc6c(-c7cc(F)cc(NC(=O)c8ccc(C(C)(C)O)cc8F)c7C)ncnc6[nH]5)cc4)CC3)CC2)cc1N1CCC(=O)NC1=O [Compound 4, N-(3-(6-(4-((9-(3-(2,4-Dioxotetrahydropyrimidin-1(2H)-yl)-4-ethoxybenzoyl)-3,9-diazaspiro[5.5]undecan-3-yl)methyl)phenyl)-7H-pyrrolo[2,3-d]pyrimidin-4-yl)-5-fluoro-2-methylphenyl)-2-fluoro-4-(2-hydroxypropan-2-yl)benzamide] | 3.7 | 7.8
Cc1ccc(C(=O)N2CCC3(CCN(CCc4ccc(-c5cc6c(-c7cc(F)cc(NC(=O)c8ccc(C(C)(C)O)cc8F)c7C)ncnc6[nH]5)cc4)CC3)CC2)cc1N1CCC(=O)NC1=O [Compound 5, N-(3-(6-(4-(2-(9-(3-(2,4-Dioxotetrahydropyrimidin-1(2H)-yl)-4-methylbenzoyl)-3,9-diazaspiro[5.5]undecan-3-yl)ethyl)phenyl)-7H-pyrrolo[2,3-d]pyrimidin-4-yl)-5-fluoro-2-methylphenyl)-2-fluoro-4-(2-hydroxypropan-2-yl)benzamide] | 1 | 3.1
Cc1c(NC(=O)c2ccc(C(C)(C)O)cc2F)cc(F)cc1-c1ncnc2[nH]c(-c3ccc(COC4CCN(CCC5CCN(C(=O)c6ccc(F)c(N7CCC(=O)NC7=O)c6)CC5)CC4)cc3)cc12 [Compound 6, N-(3-(6-(4-(((1-(2(1-(3-(2,4-dioxotetrahydropyrimidin-1(2H)-yl)-4-fluorobenzoyl)piperidin-4-yl)ethyl)piperidin-4-yl)oxyl)methyl)phenyl)-7H-pyrrolo[2,3-d]pyrimidin-4-yl)-5-fluoro-2-methylphenyl)-2-fluoro-4-(2-hydroxypropan-2-yl)benzamide] | 0.7 | 4.1
COc1ccc(C(=O)N2CCC(OC3CCN(Cc4ccc(-c5cc6c(-c7cc(F)cc(NC(=O)c8ccc(C(C)(C)O)cc8F)c7C)ncnc6[nH]5)cc4)CC3)CC2)cc1N1CCC(=O)NC1=O [Compound 8, N-(3-(6-(4-((4-((1-(3-(2,4-dioxotetrahydropyrimidin-1(2H)-yl)-4-methoxybenzoyl)piperidin-4-yl)oxyl)piperidin-1-yl)methyl)phenyl)-7H-pyrrolo[2,3-d]pyrimidin-4-yl)-5-fluoro-2-methylphenyl)-2-fluoro-4-(2-hydroxypropan-2-yl)benzamide] | 2.6 | 5.5
COc1ccc(C(=O)N2CCC3(CCN(Cc4ccc(-c5cc6c(-c7cc(F)cc(NC(=O)c8ccc(C(C)(C)O)cc8F)c7C)ncnc6[nH]5)cc4)CC3)CC2)cc1N1CCC(=O)NC1=O [Compound 9, N-(3-(6-(4-((9-(3-(2,4-Dioxotetrahydropyrimidin-1(2H)-yl)-4-methoxybenzoyl)-3,9-diazaspiro[5.5]undecan-3-yl)methyl)phenyl)-7H-pyrrolo[2.3-d]pyrimidin-4-yl)-5-fluoro-2-methylphenyl)-2-fluoro-4-(2-hydroxypropan-2-yl)benzamide] | 2.1 | 4.5
Cc1c(NC(=O)c2ccc(C(C)(C)O)cc2F)cc(F)cc1-c1ncnc2[nH]c(-c3ccc(CCN4CCC5(CC4)CCN(C(=O)c4cccc(N6CCC(=O)NC6=O)c4)CC5)cc3)cc12 [Compound 12, N-(3-(6-(4-(2-(9-(3-(2,4-Dioxotetrahydropyrimidin-1(2H)-yl)benzoyl)-3,9-diazaspiro[5,5]undecan-3-yl)ethyl)phenyl)-7H-pyrrolo[2,3-d]pyrimidin-4-yl)-5-fluoro-2-methylphenyl)-2-fluoro-4-(2-hydroxypropan-2-yl)benzamide] | 29.9 | 40.6
Cc1c(NC(=O)c2ccc(C(C)(C)O)cc2F)cc(F)cc1-c1ncnc2[nH]c(-c3ccc(CN4CCC5(CC4)CCN(C(=O)c4ccc(F)c(N6CCC(=O)NC6=O)c4)CC5)cc3)cc12 [Compound 14, N-(3-(6-(4-((9-(3-(2,4-Dioxotetrahydropyrimidin-1(2H)-yl)-4-fluorobenzoyl)-3,9-diazaspiro[5.5]undecan-3-yl)methyl)phenyl)-7H-pyrrolo[2.3-d]pyrimidin-4-yl)-5-fluoro-2-methylphenyl)-2-fluoro-4-(2-hydroxypropan-2-yl)benzamide] | 3.8 | 11.7
COc1ccc(C(=O)N2CCC(CN3CCC(Oc4ccc(-c5cc6c(-c7cc(F)cc(NC(=O)c8ccc(C(C)(C)O)cc8F)c7C)ncnc6[nH]5)cc4)CC3)CC2)cc1N1CCC(=O)NC1=O [Compound 19, N-(3-(6-(4-((1-((1-(3-(2,4-Dioxotetrahydropyrimidin-1(2H)-yl)-4-methoxybenzoyl)piperidin-4-yl)methyl)piperidin-4-yl)oxyl)phenyl)-7H-pyrrolo[2,3-d]pyrimidin-4-yl)-5-fluoro-2-methylphenyl)-2-fluoro-4-(2-hydroxypropan-2-yl)benzamide] | 0.6 | 2.7
COc1ccc(C(=O)N2CCC3(CC2)CCN(C(C)(C)Cc2ccc(-c4cc5c(-c6cc(F)cc(NC(=O)c7ccc(C(C)(C)O)cc7F)c6C)ncnc5[nH]4)cc2)CC3)cc1N1CCC(=O)NC1=O [Compound 20, N-(3-(6-(4-(2-(9-(3-(2,4-Dioxotetrahydropyrimidin-1(2H)-yl)-4-methoxybenzoyl)-3,9-diazaspiro[5.5]undecan-3-yl)-2-methylpropyl)phenyl)-7H-pyrrolo[2,3-d]pyrimidin-4-yl)-5-fluoro-2-methylphenyl)-2-fluoro-4-(2-hydroxypropan-2-yl)benzamide] | 2 | 1.1
COc1ccc(C(=O)N2CCN(C(=O)N3CCN(Cc4ccc(-c5cc6c(-c7cc(F)cc(NC(=O)c8ccc(C(C)(C)O)cc8F)c7C)ncnc6[nH]5)cc4)CC3)CC2)cc1N1CCC(=O)NC1=O [Compound 22, N-(3-(6-(4-((4-(4-(3-(2,4-Dioxotetrahydropyrimidin-1(2H)-yl)-4-methoxybenzoyl)piperazine-1-carbonyl)piperazin-1-yl)methyl)phenyl)-7H-pyrrolo[2,3-d]pyrimidin-4-yl)-5-fluoro-2-methylphenyl)-2-fluoro-4-(2-hydroxypropan-2-yl)benzamide] | 23.7 | 6.5
Cc1ccc(C(=O)N2CCC3(CCN(Cc4ccc(-c5cc6c(-c7cc(F)cc(NC(=O)c8ccc(C(C)(C)O)cc8F)c7C)ncnc6[nH]5)cc4)CC3)CC2)cc1N1CCC(=O)NC1=O [Compound 27, N-(3-(6-(4-((9-(3-(2,4-Dioxotetrahydropyrimidin-1(2H)-yl)-4-methylbenzoyl)-3,9-diazaspiro[5.5]undecan-3-yl)methyl)phenyl)-7H-pyrrolo[2,3-d]pyrimidin-4-yl)-5-fluoro-2-methylphenyl)-2-fluoro-4-(2-hydroxypropan-2-yl)benzamide] | 1.5 | 4.1
Cc1cc(F)c(C(=O)NCCCCCNCc2ccc(-c3cc4c(-c5cc(F)cc(NC(=O)c6ccc(C(C)(C)O)cc6F)c5C)ncnc4[nH]3)cc2)cc1N1CCC(=O)NC1=O [Compound 29, 5-(2,4-Dioxotetrahydropyrimidin-1(2H)-yl)-2-fluoro-N—(S-((4-(4-(5-fluoro-3-(2-fluoro-4-(2-hydroxypropan-2-yl)benzamido)-2-methylphenyl)-7H-pyrrolo[2,3-d]pyrimidin-6-yl)benzyl)amino)pentyl)-4-methylbenzamide] | 19.9 | 3.1
Cc1ccc(C(=O)N(C)CCCCCNCc2ccc(-c3cc4c(-c5cc(F)cc(NC(=O)c6ccc(C(C)(C)O)cc6F)c5C)ncnc4[nH]3)cc2)cc1N1CCC(=O)NC1=O [Compound 30, 3-(2,4-Dioxotetrahydropyrimidin-1(2H)-yl)-N-(5-((4-(4-(5-fluoro-3-(2-fluoro-4-(2-hydroxypropan-2-yl)benzamido)-2-methylphenyl)-7H-pyrrolo[2,3-d]pyrimidin-6-yl)benzyl)amino)pentyl)-N,4-dimethylbenzamide] | 47.1 | 5.4
COc1ccc(C(=O)N2CCC3(CCN(CCc4ccc(-c5cc6c(-c7cc(F)cc(NC(=O)c8ccc(C(C)(C)O)cc8F)c7C)ncnc6[nH]5)cc4)CC3)CC2)cc1N1CCC(=O)NC1=O [Compound 31, N-(3-(6-(4-(2-(9-(3-(2,4-Dioxotetrahydropyrimidin-1(2H)-yl)-4-methoxybenzoyl)-3,9-diazaspiro[5.5]undecan-3-yl)ethyl)phenyl)-7H-pyrrolo[2,3-d]pyrimidin-4-yl)-5-fluoro-2-methylphenyl)-2-fluoro-4-(2-hydroxypropan-2-yl)benzamide] | 2.5 | 3.4
COc1ccc(C(=O)N2CCC(OC3CCN(CCc4ccc(-c5cc6c(-c7cc(F)cc(NC(=O)c8ccc(C(C)(C)O)cc8F)c7C)ncnc6[nH]5)cc4)CC3)CC2)cc1N1CCC(=O)NC1=O [Compound 34, N-(3-(6-(4-(2-(4-((1-(3-(2,4-Dioxotetrahydropyrimidin-1(2H)-yl)-4-methoxybenzoyl)piperidin-4-yl)oxyl)piperidin-1-yl)ethyl)phenyl)-7H-pyrrolo[2,3-d]pyrimidin-4-yl)-5-fluoro-2-methylphenyl)-2-fluoro-4-(2-hydroxypropan-2-yl)benzamide] | 3.9 | 1.7
COc1ccc(C(=O)NCCN2CCOC3(CCN(Cc4ccc(-c5cc6c(-c7cc(F)cc(NC(=O)c8ccc(C(C)(C)O)cc8F)c7C)ncnc6[nH]5)cc4)CC3)C2)cc1N1CCC(=O)NC1=O [Compound 39, N-(3-(6-(4-((4-(2-(3-(2,4-dioxotetrahydropyrimidin-1(2H)-yl)-4-methoxybenzamido)ethyl)-1-oxa-4,9-diazaspiro[5.5]undecan-9-yl)methyl)phenyl)-7H-pyrrolo[2,3-d]pyrimidin-4-yl)-5-fluoro-2-methylphenyl)-2-fluoro-4-(2-hydroxypropan-2-yl)benzamide] | 149 | 12.7
